Values quoted from earlier work as cited in patent US6610471B1, “Methods and compositions to investigate infection by hepatitis B virus and agents to prevent and treat the infection” (priority 1998, dated 2003).

Test system: chronic HBV infection
Settings: patients receiving interferon-α treatment, long-term studies; cited from earlier work

For interferon-α, the “patients with loss of circulating HBV antigens and improved survival rate” value is given as “about 30 % of patients”.
